Assay results published in patent publication US6187807A, “Methods of use and compositions of (S) (-)-amisulpride” (Sanofi-Synthelabo, priority 1999, dated 2001).

What was measured:
[1] = Antagonism of apomorphine-induced stereotypies; type: in vivo; conditions: rat, in vivo; ip; apomorphine 0.5 mg/kg sc, 30 min after drug
Protocol: (§1) The propensity of the drugs to induce extrapyramidal side effects was assessed by measuring their potential to induce catalepsy and to antagonize apomorphine-induced stereotyped behaviour and the sedative potential of the drugs was evaluated by their capacity to decrease spontaneous locomotor activity in the rat.
(§2) For scoring stereotypies, the following scale was used: 0: asleep; 1: awake; quiet; 2: locomotion, head bobbing; 3: sniffing; 4: licking; 5: chewing/gnawing. For each rat, a global score was calculated by averaging the 3 stereotypy scores obtained at 10 min intervals.

[2] = system: apomorphine-induced stereotypies; assay: Antagonism of apomorphine-induced stereotypies; type: in vivo; conditions: comparison in words
Protocol: as §1, §2

in vivo [3] = conditions: rat, ip, measured 2 hours and 4 hours after drug, read-out: Induction of catalepsy (ED50)
Protocol: as §1
The occurrence of catalepsy in rats was assessed using the four-cork test. This measurement was performed by placing each paw of the rat on a 2.5 cm high cork (diameter 1.2 cm). Distance between contralateral corks was 8 cm and between ipsilateral corks 13 cm. Catalepsy time was measured for a maximum of 2 min at 2 hours, and 4 hours after ip drug treatment.

in vivo [4] = conditions: rat, ip, 20 min recording, 30 min after drug, read-out: Decrease in spontaneous locomotor activity (ED50)
Protocol: as §1
Spontaneous locomotor activity was measured for 20 min immediately after rats were placed in the activity cages, 30 min after drug treatment.

[5] = system: apomorphine-induced hypermotility; assay: Antagonism of apomorphine-induced hypermotility; conditions: Rattus norvegicus, ip, 0.5 h, read-out: Antagonism of apomorphine-induced hypermotility (ED50)
Source text: These experimental conditions produce low baseline locomotor activity suitable for assessing increases in locomotion produced by apomorphine.

[6] = system: d-amphetamine-induced hypermotility; assay: Antagonism of d-amphetamine-induced hypermotility; conditions: for ED50: Rattus norvegicus, ip, 0.5 h, read-out: Antagonism of d-amphetamine-induced hypermotility (ED50)
Protocol: d-Amphetamine-induced hyperactivity was recorded for 20 min, 30 min after injection of d-amphetamine (2 mg/kg, ip) immediately after placing rats in the activity cages without habituation according to Gh.

Compound	ED50 [1] [mg/kg]	Potency at antagonizing apomorphine-induced stereotypies, (S)(-)-amisulpride compared with (R,S)-amisulpride [2]	ED50 (in vivo [3]) [mg/kg]	ED50 (in vivo [4]) [mg/kg]	ED50 [5] [mg/kg]	ED50 [6] [mg/kg]	Potency in tests predictive of antipsychotic activity, compared with (R,S)-amisulpride ([6]; antagonism of apomorphine or amphetamine hyperlocomotion, in words)
CCN1CCCC1CNC(=O)c1cc(S(=O)(=O)CC)c(N)cc1OC (racemic) [(R,S)-amisulpride, reference compound]	115	equipotent	> 100	100	30	3	
CCN1CCC[C@H]1CNC(=O)c1cc(S(=O)(=O)CC)c(N)cc1OC [(S)(-)-amisulpride, (S)-(-)-4-amino-N-[(1-ethylpyrrolidin-2-yl)methyl]-5-(ethylsulfonyl)-2-methoxybenzamide]	100	equipotent	> 100	100	15	1.2	twice as potent
